Results on eight compounds are retold here after ChEMBL document CHEMBL4346696, “PIM kinase inhibitors: Structural and pharmacological perspectives” (Eur J Med Chem, 2019).

The structures appear in SMILES notation.

The nature of assay [1]: Cytotoxicity against human […] cells after 24 hrs by MTT assay. Type of assay: functional, cell-based.
In the next assay the test system is MCF7. Put plainly: Cytotoxicity against human MCF7 cells after 24 hrs by MTT assay. Type of assay: functional, cell-based. Conditions: MCF7, 24 h.
The species named for assay [2] is Homo sapiens. Put plainly: Selectivity ratio of IC50 for PI3kgamma (unknown origin) to Ki for PIM1 (unknown origin).
The species named for assay [3] is Homo sapiens. The assay can be described thus: Selectivity ratio of IC50 for PI3kalpha (unknown origin) to Ki for PIM1 (unknown origin).
For assay [4], the species on record is Homo sapiens. The assay can be described thus: Selectivity ratio of IC50 for PI3kdelta (unknown origin) to Ki for PIM1 (unknown origin).
Assay [5] deals with T1, Serine/threonine-protein kinase pim-1 (Homo sapiens, UniProt P11309). The assay can be described thus: Inhibition of N-terminal GST-tagged recombinant human full length Pim-1 expressed in Escherichia coli cells.
For assay [6], the target named is T1, Serine/threonine-protein kinase pim-1. The assay can be described thus: Inhibition of PIM1 (unknown origin).
The test system of the next assay is HT-29. The assay can be described thus: Cytotoxicity against human HT-29 cells after 24 hrs by MTT assay. It counts as functional, cell-based. Conditions: HT-29, 24 h.

T1 sequence (P11309 whole entry): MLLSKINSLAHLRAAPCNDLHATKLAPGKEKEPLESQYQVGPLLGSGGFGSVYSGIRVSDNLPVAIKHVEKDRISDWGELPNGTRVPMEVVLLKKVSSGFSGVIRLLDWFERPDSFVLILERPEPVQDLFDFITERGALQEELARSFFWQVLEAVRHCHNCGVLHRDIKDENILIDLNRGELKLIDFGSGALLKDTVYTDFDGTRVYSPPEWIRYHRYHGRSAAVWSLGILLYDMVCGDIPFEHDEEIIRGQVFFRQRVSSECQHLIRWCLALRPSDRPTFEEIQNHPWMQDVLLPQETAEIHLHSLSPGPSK

Turning to `COc1cc(C2NC(=O)c3sc4nc(C)c(Br)c(C)c4c3N2)ccc1O` (centres undefined), the IC50 (in assay [1]; in the assay on MCF7) was 60 to 1760 nM in each case.
`CC(C)(O)[C@H]1CC[C@H](Nc2ccc3ncc(-c4cccc(C(F)(F)F)c4)n3n2)CC1`: the Ratio in the assay listed under Homo sapiens [2], in the assay listed under Homo sapiens [3] and in the assay filed under Homo sapiens [4] was 10 in each case.
Take `O=C1NC(=O)/C(=C/c2ccnc(N3CCC(CNCc4ccc5ccccc5n4)CC3)n2)S1`: the Ki in assay [5] turned out to be 7.7 nM.
As to `CSc1ncc(-c2cc(-c3ccc(Br)cc3)[nH]c(=N)c2C#N)n1Cc1ccccc1`, the IC50 is < 150 nM in assay [6] and > 130000 nM in the assay on HT-29.
With `CSc1ncc(-c2cc(-c3ccc4c(c3)OCO4)[nH]c(=N)c2C#N)n1Cc1ccccc1`, in the assay with HT-29, the IC50 was > 130000 nM.
Take `Cc1nc2sc3c(c2c(C)c1Br)NC(c1ccc(O)c(O)c1)NC3=O` (centres undefined): the IC50 (in assay [1]; with MCF7) was 60 to 1760 nM throughout.
Take `CSc1ncc(-c2cc(-c3ccc4c(c3)OCO4)[nH]c(=O)c2C#N)n1Cc1ccccc1`: the IC50 in the assay with HT-29 is > 130000 nM.
Consider `CSc1ncc(-c2cc(-c3ccc(Br)cc3)[nH]c(=O)c2C#N)n1Cc1ccccc1`, for which the figures for the IC50 (in assay [6]; in the assay with HT-29) were < 150 nM and > 130000 nM, respectively.
